Data on one compound can be found in patent US20090209046A1, “Neutral Pharmaceuticals” (priority 2006, published 2009).

Values after ≈ are worked out from the molar mass of the structure shown. Marks after values point to notes of the source that are not given here.

The conditions of data set [1]: water; from reference Koch et al. J. Pharm. Sci. 1978; cited from earlier work.
The nature of data set [2]: Measurement of solubility in water, octanol saturated water and water saturated octanol.
Protocol: Solubilities were determined at 25° C. in water (Sw), octanol saturated water (Sow), water saturated octanol (Swo). An excess of the sample was added to 15 ml of each solvent and stirred vigorously at 25° C. for 8 hours. […] The supernatant was collected. The supernatant samples after appropriate dilutions with respective solvent were analyzed by UV spec using a standard plot of solute in the same medium. Solubility of copper acetate in water saturated octanol was determined by extracting 200 ml saturated wo solution into 20 ml ow.

One may read the logP as the decadic logarithm of the partition coefficient of the neutral form, usually between octanol and water. Lower therefore signals a more hydrophilic compound. Broadly, the solubility (thermodynamic) is solubility found after equilibrating the solid with the medium. `CC(=O)Oc1ccccc1C(=O)O` [Aspirin(ASP), acetylsalicylic acid, reference compound] yielded a logP in the data set “physchem” of 1.32. For the same compound, the Sw in data set [1] is reported as 4.600^b mg/ml. Moreover, the “logSR (Swo/Sow)” value in data set [2] (log solubility ratio, 25° C.) turned out to be 1.101. The compound also registered a thermodynamic solubility at 8 h in data set [2] (octanol saturated water, 25 °C, water, thermodynamic from solid) of 4300 µg/mL (≈ 23.8 mM). In addition, the Swo in data set [2] (solubility in water saturated octanol, 25° C.) is 54.16(94) mg/ml.
